Test results reported in US20010018065A1, “Compounds and methods for the treatment of bacterial dysentery using antibiotics and toxin binding oligosaccharide compositions” (priority 1998, published 2001).
≈ marks a conversion by molar mass, not a printed value.

Test system: E. coli ATCC 25922
Assay: Minimum inhibitory concentration (NCCLS M7-A2) for reference strain
Type: cell-based
Conditions: reference strain ATCC #25922; for MIC: Escherichia coli, ATCC25922

`C=CC1=C(C(=O)O)N2C(=O)[C@@H](NC(=O)/C(=N\OCC(=O)O)c3csc(N)n3)[C@H]2SC1` [Cefixime] showed an MIC of 0.96 µg/mL (≈ 2.12 µM).

With `O=C(O)c1cn(C2CC2)c2cc(N3CCNCC3)c(F)cc2c1=O` [Ciprofloxacin] the MIC was 0.0384 µg/mL (≈ 0.116 µM).

In the case of `CO[C@@]12[C@H](COC(N)=O)C3=C(C(=O)C(C)=C(N)C3=O)N1C[C@@H]1N[C@@H]12` [Mitomycin-C], the “Minimum Inhibitory Concentration” value is reported as 9.6 µg/mL.

For `CN(C)[C@@H]1C(O)=C(C(N)=O)C(=O)[C@@]2(O)C(O)=C3C(=O)c4c(O)cccc4[C@@](C)(O)[C@H]3C[C@@H]12` [Tetracycline], the MIC was 1.92 µg/mL (≈ 4.32 µM).
